{"source": "patent US20220050096A1", "about": "“ANALYTE-SENSITIVE PROBES AND CONTACT LENS FOR DIAGNOSIS OF OCULAR PATHOLOGIES” (University Of Maryland, Baltimore, priority 2020, published 2022)", "test": "Sodium-dependent intensity decays of SG in 20 mM MOPS buffer, 8 mM KCl", "format": "physicochemical", "design": "key to α1 / α2 / α3 / f1 / f2 / f3: fractional amplitudes (α) and intensity fractions (f); Σαi=1.0, Σfi=1.0", "method": "Fluorescence Spectroscopic Measurements. Fluorescence intensities and intensity decays were measured using a Varian™ Eclipse 4 spectrofluorometer and a FluoTime300 instrument from PicoQuant™ (Berlin, Germany) and analyzed with the EasyTau™ software. The excitation source was a 473 nm laser diode with a repetition rate of 40 MHZ and a pulse width less than 100 ps. In other embodiments, the excitation source for SG-PL was at 495 nm from a Solea™ supercontinuum laser (PicoQuant™, Germany) and a 375 nm laser diode (PDL 375, PicoQuant™), a repetition rate of 40 MHz, and a pulse width less than 100 ps. Some intensity and lifetime measurements for SG-PL (as indicated) were performed using Alba V confocal fluorescence lifetime microscopy, FLIM (ISS, Urbana, Ill.), with excitation source of a 473 nm laser diode with a repetition rate of 40 MHz and a pulse width near 250 ps.\nIntensity decays were measured at the emission maximum with the band of 10 to 20 nm, analyzed in terms of the multi-exponential model:\nI(t)=Σαi exp(−t/ti) (equation 1)\nwhere ti are the individual decay times and αi the initial time-zero amplitudes. The mean decay time can be represented in two ways. The average lifetime is given by:\nwhere Σαi=1.0 and Σfi=1.0. The term fi=αi τi is proportional to the fractional contribution of each component to the total intensity decay. The term τi/Σαi τi is the fractional contribution to the steady state emission. Here, we use the amplitude-weighted lifetime given by\nwhich is appropriate when the emission is from a single fluorophore with a changing quantum yield. For a single exponential decay, the lifetime is given by τ=1.0/(knr+Γ) and the quantum yield is given by Q=Γ/(knr+Γ) where knr is the sum of all non-radiative decay rates and Γ is the radiative decay rate. The value of Γ is determined by the molecular extinction coefficient that remains constant under most conditions. For a single type of fluorophore with a constant value of Γ the normalized αi values represent the molecular fraction of each decay time component. The value of αi and τi were determined by non-linear least squares fitting using PicoQuant™ software.\nThree decay time components were required for the intensity decays. Fluorescence anisotropy decays were determined by individual measurements of the polarized intensity decays with corrections for the G-factor. Resolution of multi-exponential decays is not necessary. The average lifetime can be used as a single measurement. […]", "key": {"[1]": {"conditions": "NaCl 30 mM, 20 mM MOPS buffer 8 mM KCl"}, "[2]": {"conditions": "NaCl 50 mM, 20 mM MOPS buffer 8 mM KCl"}, "[3]": {"conditions": "NaCl 90 mM, 20 mM MOPS buffer 8 mM KCl"}, "[4]": {"conditions": "NaCl 150 mM, 20 mM MOPS buffer 8 mM KCl"}, "[5]": {"conditions": "NaCl 210 mM, 20 mM MOPS buffer 8 mM KCl"}}, "data": [{"smiles": "COc1cc(N2CCOCCOCCN(c3cc(OC)c(NC(=O)c4ccc(-c5c6cc(Cl)c(=O)cc-6oc6cc([O-])c(Cl)cc56)c(C(=O)[O-])c4)cc3OC)CCOCC2)c(OC)cc1NC(=O)c1ccc(-c2c3cc(Cl)c(=O)cc-3oc3cc([O-])c(Cl)cc23)c(C(=O)[O-])c1.C[N+](C)(C)C.C[N+](C)(C)C.C[N+](C)(C)C.C[N+](C)(C)C", "note": "[SG]", "values": [{"measurement": "f1", "setting": "[1]", "result": 0.068}, {"measurement": "f2", "setting": "[1]", "result": 0.295}, {"measurement": "f3", "setting": "[1]", "result": 0.638}, {"measurement": "α1", "setting": "[1]", "result": 0.255}, {"measurement": "α2", "setting": "[1]", "result": 0.349}, {"measurement": "α3", "setting": "[1]", "result": 0.396}, {"measurement": "τ1", "setting": "[1]", "result": 0.54, "unit": "ns"}, {"measurement": "τ2", "setting": "[1]", "result": 1.72, "unit": "ns"}, {"measurement": "τ3", "setting": "[1]", "result": 3.27, "unit": "ns"}, {"measurement": "τf", "setting": "[1]", "result": 2.63, "unit": "ns"}, {"measurement": "τα", "setting": "[1]", "result": 2.03, "unit": "ns"}, {"measurement": "f1", "setting": "NaCl 50 mM, MOPS buffer", "result": 0.081}, {"measurement": "f2", "setting": "NaCl 50 mM, MOPS buffer", "result": 0.349}, {"measurement": "f3", "setting": "NaCl 50 mM, MOPS buffer", "result": 0.570}, {"measurement": "α1", "setting": "NaCl 50 mM, MOPS buffer", "result": 0.259}, {"measurement": "α2", "setting": "NaCl 50 mM, MOPS buffer", "result": 0.380}, {"measurement": "α3", "setting": "NaCl 50 mM, MOPS buffer", "result": 0.361}, {"measurement": "τ1", "setting": "NaCl 50 mM, MOPS buffer", "result": 0.66, "unit": "ns"}, {"measurement": "τ2", "setting": "NaCl 50 mM, MOPS buffer", "result": 1.95, "unit": "ns"}, {"measurement": "τ3", "setting": "NaCl 50 mM, MOPS buffer", "result": 3.35, "unit": "ns"}, {"measurement": "τf", "setting": "NaCl 50 mM, MOPS buffer", "result": 2.64, "unit": "ns"}, {"measurement": "τα", "setting": "NaCl 50 mM, MOPS buffer", "result": 2.12, "unit": "ns"}, {"measurement": "f1", "setting": "[2]", "result": 0.081}, {"measurement": "f2", "setting": "[2]", "result": 0.349}, {"measurement": "f3", "setting": "[2]", "result": 0.570}, {"measurement": "α1", "setting": "[2]", "result": 0.259}, {"measurement": "α2", "setting": "[2]", "result": 0.380}, {"measurement": "α3", "setting": "[2]", "result": 0.361}, {"measurement": "τ1", "setting": "[2]", "result": 0.66, "unit": "ns"}, {"measurement": "τ2", "setting": "[2]", "result": 1.95, "unit": "ns"}, {"measurement": "τ3", "setting": "[2]", "result": 3.35, "unit": "ns"}, {"measurement": "τf", "setting": "[2]", "result": 2.64, "unit": "ns"}, {"measurement": "τα", "setting": "[2]", "result": 2.12, "unit": "ns"}, {"measurement": "f1", "setting": "NaCl 90 mM, MOPS buffer", "result": 0.074}, {"measurement": "f2", "setting": "NaCl 90 mM, MOPS buffer", "result": 0.380}, {"measurement": "f3", "setting": "NaCl 90 mM, MOPS buffer", "result": 0.545}, {"measurement": "α1", "setting": "NaCl 90 mM, MOPS buffer", "result": 0.242}, {"measurement": "α2", "setting": "NaCl 90 mM, MOPS buffer", "result": 0.416}, {"measurement": "α3", "setting": "NaCl 90 mM, MOPS buffer", "result": 0.342}, {"measurement": "τ1", "setting": "NaCl 90 mM, MOPS buffer", "result": 0.64, "unit": "ns"}, {"measurement": "τ2", "setting": "NaCl 90 mM, MOPS buffer", "result": 1.93, "unit": "ns"}, {"measurement": "τ3", "setting": "NaCl 90 mM, MOPS buffer", "result": 3.36, "unit": "ns"}, {"measurement": "τf", "setting": "NaCl 90 mM, MOPS buffer", "result": 2.61, "unit": "ns"}, {"measurement": "τα", "setting": "NaCl 90 mM, MOPS buffer", "result": 2.11, "unit": "ns"}, {"measurement": "f1", "setting": "[3]", "result": 0.074}, {"measurement": "f2", "setting": "[3]", "result": 0.380}, {"measurement": "f3", "setting": "[3]", "result": 0.545}, {"measurement": "α1", "setting": "[3]", "result": 0.242}, {"measurement": "α2", "setting": "[3]", "result": 0.416}, {"measurement": "α3", "setting": "[3]", "result": 0.342}, {"measurement": "τ1", "setting": "[3]", "result": 0.64, "unit": "ns"}, {"measurement": "τ2", "setting": "[3]", "result": 1.93, "unit": "ns"}, {"measurement": "τ3", "setting": "[3]", "result": 3.36, "unit": "ns"}, {"measurement": "τf", "setting": "[3]", "result": 2.61, "unit": "ns"}, {"measurement": "τα", "setting": "[3]", "result": 2.11, "unit": "ns"}, {"measurement": "f1", "setting": "NaCl 150 mM, MOPS buffer", "result": 0.116}, {"measurement": "f2", "setting": "NaCl 150 mM, MOPS buffer", "result": 0.699}, {"measurement": "f3", "setting": "NaCl 150 mM, MOPS buffer", "result": 0.185}, {"measurement": "α1", "setting": "NaCl 150 mM, MOPS buffer", "result": 0.305}, {"measurement": "α2", "setting": "NaCl 150 mM, MOPS buffer", "result": 0.605}, {"measurement": "α3", "setting": "NaCl 150 mM, MOPS buffer", "result": 0.091}, {"measurement": "τ1", "setting": "NaCl 150 mM, MOPS buffer", "result": 0.81, "unit": "ns"}, {"measurement": "τ2", "setting": "NaCl 150 mM, MOPS buffer", "result": 2.48, "unit": "ns"}, {"measurement": "τ3", "setting": "NaCl 150 mM, MOPS buffer", "result": 4.38, "unit": "ns"}, {"measurement": "τf", "setting": "NaCl 150 mM, MOPS buffer", "result": 2.64, "unit": "ns"}, {"measurement": "τα", "setting": "NaCl 150 mM, MOPS buffer", "result": 2.15, "unit": "ns"}, {"measurement": "f1", "setting": "[4]", "result": 0.116}, {"measurement": "f2", "setting": "[4]", "result": 0.699}, {"measurement": "f3", "setting": "[4]", "result": 0.185}, {"measurement": "α1", "setting": "[4]", "result": 0.305}, {"measurement": "α2", "setting": "[4]", "result": 0.605}, {"measurement": "α3", "setting": "[4]", "result": 0.091}, {"measurement": "τ1", "setting": "[4]", "result": 0.81, "unit": "ns"}, {"measurement": "τ2", "setting": "[4]", "result": 2.48, "unit": "ns"}, {"measurement": "τ3", "setting": "[4]", "result": 4.38, "unit": "ns"}, {"measurement": "τf", "setting": "[4]", "result": 2.64, "unit": "ns"}, {"measurement": "τα", "setting": "[4]", "result": 2.15, "unit": "ns"}, {"measurement": "f1", "setting": "NaCl 210 mM, MOPS buffer", "result": 0.074}, {"measurement": "f2", "setting": "NaCl 210 mM, MOPS buffer", "result": 0.377}, {"measurement": "f3", "setting": "NaCl 210 mM, MOPS buffer", "result": 0.549}, {"measurement": "α1", "setting": "NaCl 210 mM, MOPS buffer", "result": 0.224}, {"measurement": "α2", "setting": "NaCl 210 mM, MOPS buffer", "result": 0.424}, {"measurement": "α3", "setting": "NaCl 210 mM, MOPS buffer", "result": 0.352}, {"measurement": "τ1", "setting": "NaCl 210 mM, MOPS buffer", "result": 0.70, "unit": "ns"}, {"measurement": "τ2", "setting": "NaCl 210 mM, MOPS buffer", "result": 1.88, "unit": "ns"}, {"measurement": "τ3", "setting": "NaCl 210 mM, MOPS buffer", "result": 3.29, "unit": "ns"}, {"measurement": "τf", "setting": "NaCl 210 mM, MOPS buffer", "result": 2.57, "unit": "ns"}, {"measurement": "τα", "setting": "NaCl 210 mM, MOPS buffer", "result": 2.12, "unit": "ns"}, {"measurement": "f1", "setting": "[5]", "result": 0.074}, {"measurement": "f2", "setting": "[5]", "result": 0.377}, {"measurement": "f3", "setting": "[5]", "result": 0.549}, {"measurement": "α1", "setting": "[5]", "result": 0.224}, {"measurement": "α2", "setting": "[5]", "result": 0.424}, {"measurement": "α3", "setting": "[5]", "result": 0.352}, {"measurement": "τ1", "setting": "[5]", "result": 0.70, "unit": "ns"}, {"measurement": "τ2", "setting": "[5]", "result": 1.88, "unit": "ns"}, {"measurement": "τ3", "setting": "[5]", "result": 3.29, "unit": "ns"}, {"measurement": "τf", "setting": "[5]", "result": 2.57, "unit": "ns"}, {"measurement": "τα", "setting": "[5]", "result": 2.12, "unit": "ns"}]}]}
